Experiments:
[1] = test system: barnyardgrass (Echinochloa crus-galli); experiment: Test A preemergence, visual injury rating 0-100 (0 no effect, 100 complete control); assay type: in vivo
[2] = test system: foxtail, giant (giant foxtail, Setaria faberii); experiment: Test A preemergence, visual injury rating 0-100; assay type: in vivo
kochia (Kochia scoparia) [3] = experiment: Test A preemergence, visual injury rating 0-100; assay type: in vivo
[4] = test system: pigweed (Amaranthus retroflexus); experiment: Test A preemergence, visual injury rating 0-100; assay type: in vivo
[5] = test system: ragweed (common ragweed, Ambrosia elatior); experiment: Test A preemergence, visual injury rating 0-100; assay type: in vivo
[6] = test system: ryegrass, Italian (Italian ryegrass, Lolium multiflorum); experiment: Test A preemergence, visual injury rating 0-100; assay type: in vivo
[7] = test system: barnyardgrass (Echinochloa crus-galli); experiment: Test A postemergence, visual injury rating 0-100; assay type: in vivo; conditions: 0 to 100 scale
[8] = test system: blackgrass (Alopecurus myosuroides); experiment: Test A postemergence, visual injury rating 0-100; assay type: in vivo; conditions: 0 to 100 scale
corn (Zea mays) = experiment: Test A postemergence, visual injury rating 0-100; assay type: in vivo; conditions: 0 to 100 scale
[9] = test system: foxtail, giant (giant foxtail, Setaria faberii); experiment: Test A postemergence, visual injury rating 0-100; assay type: in vivo; conditions: 0 to 100 scale
[10] = test system: galium (catchweed bedstraw, Galium aparine); experiment: Test A postemergence, visual injury rating 0-100; assay type: in vivo; conditions: 0 to 100 scale
kochia (Kochia scoparia) [11] = experiment: Test A postemergence, visual injury rating 0-100; assay type: in vivo; conditions: 0 to 100 scale
[12] = test system: pigweed (Amaranthus retroflexus); experiment: Test A postemergence, visual injury rating 0-100; assay type: in vivo; conditions: 0 to 100 scale
[13] = test system: ragweed (common ragweed, Ambrosia elatior); experiment: Test A postemergence, visual injury rating 0-100; assay type: in vivo; conditions: 0 to 100 scale
[14] = test system: ryegrass, Italian (Italian ryegrass, Lolium multiflorum); experiment: Test A postemergence, visual injury rating 0-100; assay type: in vivo; conditions: 0 to 100 scale
[15] = test system: wheat (Triticum aestivum); experiment: Test A postemergence, visual injury rating 0-100; assay type: in vivo; conditions: 0 to 100 scale
[16] = test system: ducksalad (Heteranthera limosa); experiment: Test B flooded paddy test, visual rating 0-100; conditions: Flood, 250 g ai/ha, applied to paddy water, rated after 13 to 15 days
[17] = test system: barnyardgrass (Echinochloa crus-galli); experiment: Test B flooded paddy test, visual rating 0-100; conditions: Flood, 250 g ai/ha, applied to paddy water, rated after 13 to 15 days
rice (Oryza sativa) = experiment: Test B flooded paddy test, visual rating 0-100 (0 no effect, 100 complete control); conditions: Flood, 250 g ai/ha, applied to paddy water, rated after 13 to 15 days
[18] = 125 g ai/ha, 0 to 100 scale (0 no effect, 100 complete control), approx. 10 days

SMILES	Barnyardgrass plant response rating (0 to 100 scale) ([1]; 500 g ai/ha)	Foxtail, Giant plant response rating (0 to 100 scale) ([2]; 500 g ai/ha)	Kochia plant response rating (0 to 100 scale) (kochia (Kochia scoparia) [3]; 500 g ai/ha)	Pigweed plant response rating (0 to 100 scale) ([4]; 500 g ai/ha)	Ragweed plant response rating (0 to 100 scale) ([5]; 500 g ai/ha)	Ryegrass, Italian plant response rating (0 to 100 scale) ([6]; 500 g ai/ha)	Barnyardgrass plant response rating ([7]; 125 g ai/ha)	Barnyardgrass plant response rating ([7]; 500 g ai/ha)	Blackgrass plant response rating ([8]; 125 g ai/ha)	Blackgrass plant response rating ([8]; 500 g ai/ha)	Corn plant response rating (corn (Zea mays); 125 g ai/ha)	Corn plant response rating (corn (Zea mays); 500 g ai/ha)	Foxtail, Giant plant response rating ([9]; 125 g ai/ha)	Foxtail, Giant plant response rating ([9]; 500 g ai/ha)	Galium plant response rating ([10]; 125 g ai/ha)	Galium plant response rating ([10]; 500 g ai/ha)	Kochia plant response rating (kochia (Kochia scoparia) [11]; 125 g ai/ha)	Kochia plant response rating (kochia (Kochia scoparia) [11]; 500 g ai/ha)	Pigweed plant response rating ([12]; 125 g ai/ha)	Pigweed plant response rating ([12]; 500 g ai/ha)	further results
CC1=[N+]([O-])C(C(=O)Nc2cccc(F)c2F)C(c2ccc(C(F)(F)F)c(Cl)c2)C1 (racemic) [Compound 102]	90	90	80	90	80	90	70	80	60	80	40	40	70	80	50	70	30	40	30	70	Barnyardgrass plant response rating (0 to 100 scale) ([1]; 125 g ai/ha): 80; Foxtail, Giant plant response rating (0 to 100 scale) ([2]; 125 g ai/ha): 90; Kochia plant response rating (0 to 100 scale) (kochia (Kochia scoparia) [3]; 125 g ai/ha): 10; Pigweed plant response rating (0 to 100 scale) ([4]; 125 g ai/ha): 60; Ragweed plant response rating (0 to 100 scale) ([5]; 125 g ai/ha): 50; Ryegrass, Italian plant response rating (0 to 100 scale) ([6]; 125 g ai/ha): 70; Ragweed plant response rating ([13]; 125 g ai/ha): 20; Ragweed plant response rating ([13]; 500 g ai/ha): 50; Ryegrass, Italian plant response rating ([14]; 125 g ai/ha): 40; Ryegrass, Italian plant response rating ([14]; 500 g ai/ha): 50; Wheat plant response rating ([15]; 125 g ai/ha): 20; Wheat plant response rating ([15]; 500 g ai/ha): 40; Ducksalad plant response rating (0 to 100 scale) [16]: 0; Barnyardgrass plant response rating (0 to 100 scale) [17]: 0; Rice plant response rating (0 to 100 scale) (rice (Oryza sativa)): 0
CC1=[N+]([O-])C(C(=O)Nc2cccc(F)c2F)C(c2cc(C)nc(OC(F)F)c2)C1 (racemic) [Compound 83]	90	90	50	90	90	90	80	90	70	80	70	90	80	90	60	70	30	50	30	80	Barnyardgrass plant response rating (0 to 100 scale) ([1]; 125 g ai/ha): 90; Foxtail, Giant plant response rating (0 to 100 scale) ([2]; 125 g ai/ha): 90; Kochia plant response rating (0 to 100 scale) (kochia (Kochia scoparia) [3]; 125 g ai/ha): 0; Pigweed plant response rating (0 to 100 scale) ([4]; 125 g ai/ha): 60; Ragweed plant response rating (0 to 100 scale) ([5]; 125 g ai/ha): 10; Ryegrass, Italian plant response rating (0 to 100 scale) ([6]; 125 g ai/ha): 70; Ragweed plant response rating ([13]; 125 g ai/ha): 30; Ragweed plant response rating ([13]; 500 g ai/ha): 70; Ryegrass, Italian plant response rating ([14]; 125 g ai/ha): 60; Ryegrass, Italian plant response rating ([14]; 500 g ai/ha): 80; Wheat plant response rating ([15]; 125 g ai/ha): 60; Wheat plant response rating ([15]; 500 g ai/ha): 80; Ducksalad plant response rating (0 to 100 scale) [16]: 75; Barnyardgrass plant response rating (0 to 100 scale) [17]: 80; Rice plant response rating (0 to 100 scale) (rice (Oryza sativa)): 0
CCC1=[N+]([O-])C(C(=O)Nc2cccc(F)c2F)C(c2ccc(C(F)(F)F)cc2)C1 (racemic) [Compound 120]	90	90	70	60	80	70	20	70	0	20	0	0	0	80	20	50	0	30	10	20	Barnyardgrass plant response rating [1, 18]: 80; Foxtail, Giant plant response rating [2, 18]: 70; Kochia plant response rating (kochia (Kochia scoparia) [3]; [18]): 0; Pigweed plant response rating [4, 18]: 30; Ryegrass, Italian plant response rating [6, 18]: 0; Ragweed plant response rating ([13]; 125 g ai/ha): 0; Ragweed plant response rating ([13]; 500 g ai/ha): 40; Ryegrass, Italian plant response rating ([14]; 125 g ai/ha): 0; Ryegrass, Italian plant response rating ([14]; 500 g ai/ha): 0; Wheat plant response rating ([15]; 125 g ai/ha): 0; Wheat plant response rating ([15]; 500 g ai/ha): 0; Ducksalad plant response rating (0 to 100 scale) [16]: 70; Barnyardgrass plant response rating (0 to 100 scale) [17]: 15; Rice plant response rating (0 to 100 scale) (rice (Oryza sativa)): 0
CC1=[N+]([O-])C(C(=O)Nc2cccc(F)c2F)C(c2ccc(C)c(Cl)c2)C1 (racemic) [Compound 72]	90	90	80	30	90	90	90	90	60	70	40	70	50	80	50	50	0	40	10	30	Barnyardgrass plant response rating (0 to 100 scale) ([1]; 125 g ai/ha): 80; Foxtail, Giant plant response rating (0 to 100 scale) ([2]; 125 g ai/ha): 90; Kochia plant response rating (0 to 100 scale) (kochia (Kochia scoparia) [3]; 125 g ai/ha): 20; Pigweed plant response rating (0 to 100 scale) ([4]; 125 g ai/ha): 30; Ragweed plant response rating (0 to 100 scale) ([5]; 125 g ai/ha): 20; Ryegrass, Italian plant response rating (0 to 100 scale) ([6]; 125 g ai/ha): 30; Ragweed plant response rating ([13]; 125 g ai/ha): 0; Ragweed plant response rating ([13]; 500 g ai/ha): 50; Ryegrass, Italian plant response rating ([14]; 125 g ai/ha): 30; Ryegrass, Italian plant response rating ([14]; 500 g ai/ha): 70; Wheat plant response rating ([15]; 125 g ai/ha): 30; Wheat plant response rating ([15]; 500 g ai/ha): 80; Ducksalad plant response rating (0 to 100 scale) [16]: 15; Barnyardgrass plant response rating (0 to 100 scale) [17]: 40; Rice plant response rating (0 to 100 scale) (rice (Oryza sativa)): 0
CC1=[N+]([O-])C(C(=O)Nc2cccc(F)c2F)C(c2cccc(C(F)(F)F)n2)C1 (stereo not drawn) [Compound 90]	90	90	60	0	0	0	10	80	30	50	0	0	20	90	20	20	0	0	0	0	Barnyardgrass plant response rating (0 to 100 scale) ([1]; 125 g ai/ha): 90; Foxtail, Giant plant response rating (0 to 100 scale) ([2]; 125 g ai/ha): 50; Kochia plant response rating (0 to 100 scale) (kochia (Kochia scoparia) [3]; 125 g ai/ha): 0; Pigweed plant response rating (0 to 100 scale) ([4]; 125 g ai/ha): 0; Ragweed plant response rating (0 to 100 scale) ([5]; 125 g ai/ha): 0; Ryegrass, Italian plant response rating (0 to 100 scale) ([6]; 125 g ai/ha): 0; Ragweed plant response rating ([13]; 125 g ai/ha): 0; Ragweed plant response rating ([13]; 500 g ai/ha): 0; Ryegrass, Italian plant response rating ([14]; 125 g ai/ha): 0; Ryegrass, Italian plant response rating ([14]; 500 g ai/ha): 0; Wheat plant response rating ([15]; 125 g ai/ha): 0; Wheat plant response rating ([15]; 500 g ai/ha): 0; Ducksalad plant response rating (0 to 100 scale) [16]: 90; Barnyardgrass plant response rating (0 to 100 scale) [17]: 15; Rice plant response rating (0 to 100 scale) (rice (Oryza sativa)): 0

From patent US11498899B2, “Nitrone herbicides” (FMC Corporation, priority 2016, dated 2022)
